Results taken from PubChem BioAssay (NCI).
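Five concentrations, 48 hours, 96-well plates. At the TGI there is no net growth.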

Key:
Experiment in all cases: DTP human tumour cell line panel, 48 h
SK-MEL-2 melanoma = test system: SK-MEL-2 melanoma
HL-60(TB) leukemia = test system: HL-60(TB) leukemia
SW-620 colon = test system: SW-620 colon
OVCAR-8 ovarian = test system: OVCAR-8 ovarian
HOP-92 NSCLC = test system: HOP-92 NSCLC
LOX IMVI melanoma = test system: LOX IMVI melanoma
OVCAR-3 ovarian = test system: OVCAR-3 ovarian
XF 498 CNS = test system: XF 498 CNS
CCRF-CEM leukemia = test system: CCRF-CEM leukemia
HCT-116 colon = test system: HCT-116 colon
HOP-18 NSCLC = test system: HOP-18 NSCLC
U251 CNS = test system: U251 CNS
NCI-H226 lung = test system: NCI-H226 lung
UACC-62 melanoma = test system: UACC-62 melanoma
MOLT-4 leukemia = test system: MOLT-4 leukemia
KM20L2 colon = test system: KM20L2 colon
SNB-19 CNS = test system: SNB-19 CNS
COLO 205 colon = test system: COLO 205 colon
M14 melanoma = test system: M14 melanoma
OVCAR-5 ovarian = test system: OVCAR-5 ovarian
OVCAR-4 ovarian = test system: OVCAR-4 ovarian
KM12 colon = test system: KM12 colon
A549 NSCLC = test system: A549 NSCLC
HT29 colon = test system: HT29 colon
786-0 renal = test system: 786-0 renal
HCT-15 colon = test system: HCT-15 colon
MALME-3M melanoma = test system: MALME-3M melanoma
NCI-H460 lung = test system: NCI-H460 lung
SF-539 CNS = test system: SF-539 CNS
DLD-1 colon = test system: DLD-1 colon
HOP-62 NSCLC = test system: HOP-62 NSCLC
SN12C renal = test system: SN12C renal
K-562 leukemia = test system: K-562 leukemia
SNB-75 CNS = test system: SNB-75 CNS
EKVX NSCLC = test system: EKVX NSCLC
CAKI-1 renal = test system: CAKI-1 renal
IGROV1 ovarian = test system: IGROV1 ovarian
UACC-257 melanoma = test system: UACC-257 melanoma
UO-31 renal = test system: UO-31 renal
SK-OV-3 ovarian = test system: SK-OV-3 ovarian
DMS 273 small cell lung = test system: DMS 273 small cell lung
DMS 114 small cell lung = test system: DMS 114 small cell lung
A498 renal = test system: A498 renal
TK-10 renal = test system: TK-10 renal
LXFL 529 NSCLC = test system: LXFL 529 NSCLC
HCC-2998 colon = test system: HCC-2998 colon
SR leukemia = test system: SR leukemia
SF-295 CNS = test system: SF-295 CNS
SF-268 CNS = test system: SF-268 CNS
ACHN renal = test system: ACHN renal
NCI-H23 lung = test system: NCI-H23 lung
RXF 393 renal = test system: RXF 393 renal
SK-MEL-28 melanoma = test system: SK-MEL-28 melanoma
M19-MEL melanoma = test system: M19-MEL melanoma
NCI-H522 lung = test system: NCI-H522 lung
SK-MEL-5 melanoma = test system: SK-MEL-5 melanoma
RPMI-8226 leukemia = test system: RPMI-8226 leukemia
SNB-78 CNS = test system: SNB-78 CNS

## CC(C)(C)c1ccc2c(c1)C(O)(c1ccccc1)c1cc(C(C)(C)C)ccc1C2(O)C(F)(F)F (configuration not stated)
SK-MEL-2 melanoma
  TGI: 3.63 µM
HL-60(TB) leukemia
  TGI: 5.15 µM
SW-620 colon
  TGI: 4.23 µM
OVCAR-8 ovarian
  TGI: 4.29 µM
HOP-92 NSCLC
  TGI: 3.79 µM
LOX IMVI melanoma
  TGI: 3.32 µM
OVCAR-3 ovarian
  TGI: 4.29 µM
XF 498 CNS
  TGI: 2.9 µM
CCRF-CEM leukemia
  TGI: 5.57 µM
HCT-116 colon
  TGI: 3.37 µM
HOP-18 NSCLC
  TGI: 5.06 µM
U251 CNS
  TGI: 3.31 µM
NCI-H226 lung
  TGI: 2.35 µM
UACC-62 melanoma
  TGI: 3.66 µM
MOLT-4 leukemia
  TGI: 4.71 µM
KM20L2 colon
  TGI: 3.05 µM
SNB-19 CNS
  TGI: 6.32 µM
COLO 205 colon
  TGI: 3.27 µM
M14 melanoma
  TGI: 3.59 µM
OVCAR-5 ovarian
  TGI: 3.05 µM
OVCAR-4 ovarian
  TGI: 3.7 µM
KM12 colon
  TGI: 4.87 µM
A549 NSCLC
  TGI: 3.7 µM
HT29 colon
  TGI: 2.99 µM
786-0 renal
  TGI: 3.77 µM
HCT-15 colon
  TGI: 3.83 µM
MALME-3M melanoma
  TGI: 5.56 µM
NCI-H460 lung
  TGI: 3.5 µM
SF-539 CNS
  TGI: 3.41 µM
DLD-1 colon
  TGI: 4.15 µM
HOP-62 NSCLC
  TGI: 2.94 µM
SN12C renal
  TGI: 3.14 µM
K-562 leukemia
  TGI: 5.62 µM
SNB-75 CNS
  TGI: 5.48 µM
EKVX NSCLC
  TGI: 9.85 µM
CAKI-1 renal
  TGI: 4.73 µM
IGROV1 ovarian
  TGI: 4.94 µM
UACC-257 melanoma
  TGI: 4.85 µM
UO-31 renal
  TGI: 4.58 µM
SK-OV-3 ovarian
  TGI: 8.57 µM
DMS 273 small cell lung
  TGI: 3.55 µM
DMS 114 small cell lung
  TGI: 5.21 µM
A498 renal
  TGI: 3.25 µM
TK-10 renal
  TGI: 11.4 µM
LXFL 529 NSCLC
  TGI: 4.39 µM
HCC-2998 colon
  TGI: 3.66 µM
SR leukemia
  TGI: 5.12 µM
SF-295 CNS
  TGI: 2.88 µM
SF-268 CNS
  TGI: 4.48 µM
ACHN renal
  TGI: 5.77 µM
NCI-H23 lung
  TGI: 4.39 µM
RXF 393 renal
  TGI: 3.87 µM
SK-MEL-28 melanoma
  TGI: 4.54 µM
M19-MEL melanoma
  TGI: 3.7 µM
NCI-H522 lung
  TGI: 3.45 µM

## COS(=O)(=O)OCCC(NC(=O)OCc1ccccc1)C(=O)OCc1ccccc1 (configuration not stated)
SK-MEL-2 melanoma
  TGI: > 100 µM
HL-60(TB) leukemia
  TGI: > 100 µM
SW-620 colon
  TGI: > 100 µM
SK-MEL-5 melanoma
  TGI: > 100 µM
OVCAR-8 ovarian
  TGI: > 100 µM
HOP-92 NSCLC
  TGI: > 100 µM
LOX IMVI melanoma
  TGI: > 100 µM
OVCAR-3 ovarian
  TGI: > 100 µM
CCRF-CEM leukemia
  TGI: > 100 µM
HCT-116 colon
  TGI: > 100 µM
HOP-18 NSCLC
  TGI: > 100 µM
U251 CNS
  TGI: > 100 µM
NCI-H226 lung
  TGI: > 100 µM
UACC-62 melanoma
  TGI: > 100 µM
MOLT-4 leukemia
  TGI: > 100 µM
KM20L2 colon
  TGI: > 100 µM
SNB-19 CNS
  TGI: > 100 µM
COLO 205 colon
  TGI: > 100 µM
M14 melanoma
  TGI: > 100 µM
OVCAR-5 ovarian
  TGI: > 100 µM
OVCAR-4 ovarian
  TGI: > 100 µM
KM12 colon
  TGI: > 100 µM
A549 NSCLC
  TGI: > 100 µM
HT29 colon
  TGI: > 100 µM
786-0 renal
  TGI: > 100 µM
HCT-15 colon
  TGI: > 100 µM
MALME-3M melanoma
  TGI: > 100 µM
NCI-H460 lung
  TGI: > 100 µM
SF-539 CNS
  TGI: > 100 µM
DLD-1 colon
  TGI: > 100 µM
HOP-62 NSCLC
  TGI: > 100 µM
SN12C renal
  TGI: > 100 µM
K-562 leukemia
  TGI: > 100 µM
SNB-75 CNS
  TGI: > 100 µM
EKVX NSCLC
  TGI: > 100 µM
CAKI-1 renal
  TGI: > 100 µM
IGROV1 ovarian
  TGI: > 100 µM
UACC-257 melanoma
  TGI: > 100 µM
RPMI-8226 leukemia
  TGI: > 100 µM
UO-31 renal
  TGI: > 100 µM
SNB-78 CNS
  TGI: > 100 µM
SK-OV-3 ovarian
  TGI: > 100 µM
DMS 273 small cell lung
  TGI: > 100 µM
DMS 114 small cell lung
  TGI: > 100 µM
A498 renal
  TGI: > 100 µM
TK-10 renal
  TGI: > 100 µM
LXFL 529 NSCLC
  TGI: > 100 µM
HCC-2998 colon
  TGI: > 100 µM
SF-295 CNS
  TGI: > 100 µM
SF-268 CNS
  TGI: > 100 µM
ACHN renal
  TGI: > 100 µM
NCI-H23 lung
  TGI: > 100 µM
SK-MEL-28 melanoma
  TGI: > 100 µM
M19-MEL melanoma
  TGI: > 100 µM
NCI-H522 lung
  TGI: > 100 µM

## O=c1c2c([nH]c3cc4c(cc13)OCO4)-c1ccccc1C2
SK-MEL-2 melanoma
  TGI: 28.9 µM
HL-60(TB) leukemia
  TGI: 70.1 µM
SW-620 colon
  TGI: > 100 µM
SK-MEL-5 melanoma
  TGI: 29.6 µM
OVCAR-8 ovarian
  TGI: > 100 µM
HOP-92 NSCLC
  TGI: 56.3 µM
LOX IMVI melanoma
  TGI: 31.7 µM
OVCAR-3 ovarian
  TGI: 51.6 µM
XF 498 CNS
  TGI: 49.4 µM
CCRF-CEM leukemia
  TGI: 71.4 µM
HCT-116 colon
  TGI: 37.4 µM
HOP-18 NSCLC
  TGI: 68.1 µM
U251 CNS
  TGI: 35.6 µM
NCI-H226 lung
  TGI: 86.7 µM
UACC-62 melanoma
  TGI: 32.3 µM
MOLT-4 leukemia
  TGI: 82 µM
KM20L2 colon
  TGI: 36.7 µM
SNB-19 CNS
  TGI: > 100 µM
COLO 205 colon
  TGI: 31.5 µM
M14 melanoma
  TGI: 46.5 µM
OVCAR-4 ovarian
  TGI: > 100 µM
KM12 colon
  TGI: 42.8 µM
A549 NSCLC
  TGI: > 100 µM
HT29 colon
  TGI: 33 µM
786-0 renal
  TGI: > 100 µM
HCT-15 colon
  TGI: > 100 µM
MALME-3M melanoma
  TGI: 62.9 µM
NCI-H460 lung
  TGI: 63.9 µM
SF-539 CNS
  TGI: 34.7 µM
DLD-1 colon
  TGI: 58.7 µM
HOP-62 NSCLC
  TGI: 52.4 µM
SN12C renal
  TGI: 84.6 µM
K-562 leukemia
  TGI: > 100 µM
EKVX NSCLC
  TGI: > 100 µM
CAKI-1 renal
  TGI: > 100 µM
IGROV1 ovarian
  TGI: 49.7 µM
RPMI-8226 leukemia
  TGI: 48.2 µM
UO-31 renal
  TGI: 86.1 µM
SNB-78 CNS
  TGI: > 100 µM
SK-OV-3 ovarian
  TGI: > 100 µM
DMS 273 small cell lung
  TGI: 42.3 µM
TK-10 renal
  TGI: 78.5 µM
LXFL 529 NSCLC
  TGI: 63.7 µM
HCC-2998 colon
  TGI: 84.1 µM
SR leukemia
  TGI: 56.1 µM
SF-295 CNS
  TGI: 84.8 µM
SF-268 CNS
  TGI: > 100 µM
ACHN renal
  TGI: 53.8 µM
NCI-H23 lung
  TGI: 67.5 µM
RXF 393 renal
  TGI: 34.2 µM
SK-MEL-28 melanoma
  TGI: 59.9 µM
NCI-H522 lung
  TGI: 55.5 µM
